Results taken from BindingDB's records for patent US12440484 (Chong Kun Dang Pharmaceutical, 2025).

How the values were obtained:
Histone deacetylase 1 = Histone deacetylase 1 (Homo sapiens, UniProt Q13547); test: Identification of HDAC Enzyme Activity Inhibition (In Vitro)
Procedure: (§1) For a HDAC1 assay, samples were treated at a concentration of 100, 1000 and 10000 nM. For a HDAC6 assay, samples were treated at a concentration of 0.1, 1, 10, 100 and 1000 nM.

Histone deacetylase 6 = molecular target: T1, Histone deacetylase 6 (Homo sapiens, UniProt Q9UBN7); test: as above
T1 sequence (Q9UBN7 whole entry): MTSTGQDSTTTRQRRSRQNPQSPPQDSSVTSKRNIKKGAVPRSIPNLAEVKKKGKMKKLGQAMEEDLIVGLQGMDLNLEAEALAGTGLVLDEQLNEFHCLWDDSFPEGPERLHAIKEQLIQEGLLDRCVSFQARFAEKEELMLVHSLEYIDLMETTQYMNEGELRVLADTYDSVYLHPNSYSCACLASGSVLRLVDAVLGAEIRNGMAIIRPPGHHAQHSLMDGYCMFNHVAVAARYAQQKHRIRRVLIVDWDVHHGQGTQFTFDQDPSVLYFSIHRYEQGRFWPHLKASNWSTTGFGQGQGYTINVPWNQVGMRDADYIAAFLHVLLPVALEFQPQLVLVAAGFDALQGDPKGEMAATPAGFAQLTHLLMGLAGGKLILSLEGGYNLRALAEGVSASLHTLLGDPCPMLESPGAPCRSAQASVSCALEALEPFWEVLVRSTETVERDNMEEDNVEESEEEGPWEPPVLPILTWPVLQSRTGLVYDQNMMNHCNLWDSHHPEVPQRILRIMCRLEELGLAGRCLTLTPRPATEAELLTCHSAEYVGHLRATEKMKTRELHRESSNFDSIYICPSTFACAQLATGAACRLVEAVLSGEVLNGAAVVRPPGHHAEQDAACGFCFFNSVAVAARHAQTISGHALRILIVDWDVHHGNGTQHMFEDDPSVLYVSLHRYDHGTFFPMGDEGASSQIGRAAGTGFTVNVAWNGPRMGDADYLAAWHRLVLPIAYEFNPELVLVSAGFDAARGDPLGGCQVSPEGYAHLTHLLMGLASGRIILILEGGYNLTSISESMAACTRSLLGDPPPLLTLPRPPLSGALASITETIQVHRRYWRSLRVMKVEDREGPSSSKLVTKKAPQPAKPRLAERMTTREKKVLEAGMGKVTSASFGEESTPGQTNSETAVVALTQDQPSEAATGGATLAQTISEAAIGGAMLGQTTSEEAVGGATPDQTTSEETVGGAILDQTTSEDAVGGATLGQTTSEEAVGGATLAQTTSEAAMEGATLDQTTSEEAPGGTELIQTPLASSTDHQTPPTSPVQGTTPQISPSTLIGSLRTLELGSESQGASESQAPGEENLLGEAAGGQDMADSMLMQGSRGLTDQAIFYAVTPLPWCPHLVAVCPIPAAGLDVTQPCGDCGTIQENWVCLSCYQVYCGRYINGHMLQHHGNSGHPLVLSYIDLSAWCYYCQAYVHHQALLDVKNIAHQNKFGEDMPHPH
Procedure: as §1

Histone deacetylase 1, sequence (Q13547 whole entry): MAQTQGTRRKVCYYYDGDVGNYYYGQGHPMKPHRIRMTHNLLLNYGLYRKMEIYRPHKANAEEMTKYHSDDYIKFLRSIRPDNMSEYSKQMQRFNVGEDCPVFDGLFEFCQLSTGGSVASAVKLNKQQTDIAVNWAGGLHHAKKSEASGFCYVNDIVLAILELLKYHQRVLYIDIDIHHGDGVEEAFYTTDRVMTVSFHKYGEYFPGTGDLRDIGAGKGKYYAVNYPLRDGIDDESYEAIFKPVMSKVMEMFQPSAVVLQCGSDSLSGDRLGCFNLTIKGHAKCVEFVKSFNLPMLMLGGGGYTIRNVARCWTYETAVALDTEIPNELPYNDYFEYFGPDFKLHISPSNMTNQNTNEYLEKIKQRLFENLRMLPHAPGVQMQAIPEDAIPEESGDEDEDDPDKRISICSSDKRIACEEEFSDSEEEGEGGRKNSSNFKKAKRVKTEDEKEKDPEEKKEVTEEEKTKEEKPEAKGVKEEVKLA

IC50 (Histone deacetylase 1)	IC50 (Histone deacetylase 6)	SMILES
> 10000 nM	33 nM	COCCN1CCC(c2ccc3c(c2)C(=O)N(Cc2ccc(-c4nnc(C(F)F)o4)cn2)C(=O)C3(C)C)CC1 [US12440484, Compound 151]
> 10000 nM	455 nM	O=c1c2ccccc2n(CCN2CCCCC2)c(=O)n1Cc1ccc(-c2nnc(C(F)F)o2)cc1F [US12440484, Compound 10]
> 10000 nM	52 nM	CC1(C)C(=O)N(Cc2ccc(-c3nnc(C(F)F)o3)cn2)C(=O)c2ccc(N3CCN(CC(F)(F)F)CC3)cc21 [US12440484, Compound 141]
> 10000 nM	43 nM	CC1(C)C(=O)N(Cc2ccc(-c3nnc(C(F)F)o3)cn2)C(=O)c2ccc(N3CCCCC3)cc21 [US12440484, Compound 27]
